Measured values published in article PMC8703605, “Enhancement of the Topical Bioavailability and Skin Whitening Effect of Genistein by Using Microemulsions as Drug Delivery Carriers” (Pharmaceuticals, 2021).
Values after ≈ are worked out from the molar mass of the structure shown. Where two headings read alike, the source gives them in different places.

How the values were obtained:
[1] = In vivo pharmacokinetic determination; conditions: 20 mg/kg; for Cmax / Tmax / half-life / AUC: male, Sprague-Dawley, rat, in vivo; for AUC: AUC0→ꝏ
Description: Rats were divided into two groups, i.e., tranderaml (test) group and oral (control) group, each of three. Rats were anesthetized by 10% chloral hydrate (dosing 0.3 mL/100 g) for intraperitoneal injection. After being anesthetized, hairs on the abdominal skin were removed by an electric shaver. Then, a glass ring with a diameter of 3 cm was fixed on the skin by a quick-drying glue. The applied dose of 20 mg/kg of the tested microemulsion formulation was placed inside the glass ring. […] Blood samples of approximately 0.6 mL were collected from the jugular vein and placed into a 1.5-mL Eppendorf at predetermined time intervals after transdermal administration. Then, the blood sample was centrifuged at 12,000 rpm for 10 min. The plasma samples were stored at −20 °C until analysis. Three to six replicates were conducted for each formulation.
Sample preparation [49, 53, 54]: A 100 μL of plasma samples was incubated with 100 μL of the sulfatase (approximately 200 unit) at 37 ± 0.5 °C for 5 h. Then, 100 µL Nicotine 4 µg/mL was used as internal standard added to the sample, then vortexed for 10 s. A total of 1 mL tert-methyl butyl ether was added for extract solution and vortexed for 10 min and then centrifuged at 10,000 rpm for 10 min. The supernatant of 800 µL was transferred to Eppendorf and evaporated to dryness in the vacuum oven (EYELA CVE-3000, Tokyo, Japan) for 1 h and 40 °C. The residue was reconstituted with 100 µL methanol and analyzed.
The pharmacokinetic analysis includes the following quantities: area under the curve (AUC), maximum plasma concentration (Cmax), the time needed to reach the maximum plasma concentration (Tmax), and the half-life (t1/2) of the drug. All values are presented as the mean ± standard deviation (SD). All data were processed using Phoenix WinNonlin 6.3 (Pharsight Corporation, Sunnyvale, CA, USA) to construct pharmacokinetic profiles. Data were analyzed by using the ANOVA test to evaluate the differences between the groups, and values of p < 0.05 indicated significant differences compared with control.

mice = system: mice; set-up: method as in PMID 16198038, PMID 9748575, PMID 2548712; conditions: cited from earlier work
rats = system: rats; set-up: method as in PMID 16198038, PMID 9748575, PMID 2548712; conditions: cited from earlier work
Salmonella typhimurium = system: Salmonella typhimurium; set-up: method as in PMID 16198038, PMID 9748575, PMID 2548712; conditions: cited from earlier work
[2] = Solubility of genistein in different vehicles (shake flask, HPLC); assay type: physicochemical
Description: An excess amount of genistein was added to 1 mL each of the vehicles, including receptor buffer and oils, into a 1.5-mL Eppendorf, which was placed on a reciproacting shaker (Shaking Bath, Model B601D, Firstek Co., Ltd., Taipei, Taiwan) and shaken for more than 24 h at room temperature. Then each smaple was centrifuged at 12,000 rpm for 10 min. The drug concentration in supernatant was analyzed by HPLC.
Hitachi HPLC system (Hitachi, Tokyo, Japan), including model L-7100 pump, L-5210 autosampler, model L-4000H detector, and Merck Lichrocart® 100 RP 18 column (250 mm × 4 mm, 5 μm), was used. The mobile phase was composed of methanol and 0.05% phosphoric acid aqueous solution at ratios of 80/20 v/v. The flow rate and detection wavelength were at 1.0 mL/min and 230 nm, respectively. Diazepam solution was used as internal standard. The analytical method was successfully validated for linearity (1.0~100.0 μg/mL), with a determination coefficient (R^2) of 0.9997, precision of coefficient of variation (CV, %) of 4.16%, and accuracy of relative error (RE, %) of 5.71%. The limit of quantitation was 0.5 µg/mL.

[3] = set-up: method as in PMID 20190449; conditions: at 25 °C; cited from earlier work

## O=c1c(-c2ccc(O)cc2)coc2cc(O)cc(O)c12 [genistein, 4′,5,7-trihydroxyisoflavone]
[1]; po
  Cmax: 3120 ± 1800 ng/mL
  Tmax: 3.67 ± 0.43 h
  half-life: 6.52 ± 1.24 h
[1]; po, rats, aqueous suspension, n = 3
  AUC: 33900 ± 4760 ng·h/mL
[1]; topical or ocular
  Cmax: 9120 ± 570 ng/mL
  Tmax: 7.26 ± 1.11 h
  half-life: 19.3 ± 5.05 h
[1]; topical or ocular, rats, transdermal, microemulsion, n = 3
  AUC: 329000 ± 50000 ng·h/mL
[1]; rats, oral, aqueous suspension, n = 3
  AUC0→ꝏ: 33910 ± 4760 ng·h/mL
mice
  Mutagenicity and teratogenicity: not mutagenic or teratogenic
rats
  Mutagenicity and teratogenicity: not mutagenic or teratogenic
Salmonella typhimurium
  Mutagenicity: not mutagenic
[2]; co-surfactant
  Increase of solubility in co-surfactant vs distilled water: > 8415 fold
[2]; in Distilled water, room temperature, read-out: Solubility
  solubility: ~0.01 mg/mL (≈ 0.037 mM)
[2]; microemulsion with PEG 400 concentration 0, read-out: Solubility in microemulsion
  solubility: 11.1 mg/mL (≈ 41 mM)
[2]; microemulsion with PEG 400 concentration 20%, read-out: Solubility in microemulsion
  solubility: 32 mg/mL (≈ 118 mM)
[2]; oil
  Increase of solubility in oil vs distilled water: more than 13 fold
[2]; oil or lipid, thermodynamic from solid, in Capryol 90, room temperature, read-out: Solubility
  solubility: 5.2 ± 0.23 mg/mL (≈ 19.2 mM)
[2]; oil or lipid, thermodynamic from solid, in Oleic acid, room temperature, read-out: Solubility
  solubility: 0.13 ± 0.02 mg/mL (≈ 0.481 mM)
[2]; oil or lipid, thermodynamic from solid, in Peceol, room temperature, read-out: Solubility
  solubility: 0.36 ± 0.01 mg/mL (≈ 1.33 mM)
[2]; organic solvent or mixture, thermodynamic from solid, in PEG 400, room temperature, read-out: Solubility
  solubility: 84.2 ± 5.61 mg/mL (≈ 311 mM)
[2]; organic solvent or mixture, thermodynamic from solid, in Transcutol HP, room temperature, read-out: Solubility
  solubility: 94.7 ± 3.92 mg/mL (≈ 350 mM)
[2]; surfactant
  Increase of solubility in surfactant vs distilled water: > 1903 fold
[2]; thermodynamic from solid, in Brij 30, room temperature, read-out: Solubility
  solubility: 27.7 ± 1.8 mg/mL (≈ 103 mM)
[2]; thermodynamic from solid, in Cremophor EL, room temperature, read-out: Solubility
  solubility: 19.4 ± 6.15 mg/mL (≈ 71.9 mM)
[2]; thermodynamic from solid, in Labrasol, room temperature, read-out: Solubility
  solubility: 55.5 ± 3.56 mg/mL (≈ 205 mM)
[2]; thermodynamic from solid, in Tween 80, room temperature, read-out: Solubility
  solubility: 19 ± 1.37 mg/mL (≈ 70.4 mM)
[2]; water, thermodynamic from solid, in Distilled water, room temperature, read-out: Solubility
  solubility: 0.01 mg/mL (≈ 0.037 mM)
[3]
  solubility in water: 5.3 µM (≈ 1.43 µg/mL)
